Here are results for 16 compounds from publication PMC6274357, “Antiprotozoal and Antiglycation Activities of Sesquiterpene Coumarins from Ferula narthex Exudate” (Molecules, 2016).

In test [1] the test system is formation of Advanced Glycation Endproducts (AGEs), BSA-MGO (methyl glyoxal). Kind of test: BSA-MGO antiglycation assay. Format: biochemical, bovine. As to the method:
The BSA (bovine serum albumin) -glucose and BSA-MGO (methyl glyoxal) antiglycation assays were carried out as reported before. The test protocol is attached as Supplementary Materials.
Supplementary Materials: Antiprotozoal and
Antiglycation Activities of Sesquiterpene Coumarins
from Ferula narthex Exudate […]
2. The AGEs Inhibition was Calculated as […]
3. Protein-Glyoxal Interaction (BSA-MGO Assay)
The antiglycation assay using methylgloxyl (MGO) was performed according to the method
developed by Peng et al. (2007) with slight modifications. Briefly, methylglyoxal (135 μL, 5.75 mM)
was incubated with BSA (135 μL, 10 mg/mL) dissolved in phosphate buffer (50 mM, pH 7.4,
containing sodium azide (0.02%), added to prevent bacterial growth) and test compounds (30 μL) at
different final concentrations (1.5–0.023 mM) in 100% DMSO. The reaction mixture was incubated at
37 °C for one week. Control solutions only contained methylglyoxal (135 μL, 5.75 mM) BSA (135 μL,
1 0 mg/mL) and DMSO (100%) only. The blank samples of similar composition were also prepared
simultaneously and kept at 4 °C for one week. The change in fluorescence intensity (excitation
335 nm, emission 385 nm; excitation 370, emission 440) due to formation of AGEs was monitored by
spectrofluorometry (Tecan® Infinite M200, Giessen, The Netherlands). Aminoguanidine (3–0.046 mM
final concentration) was used as reference compound. The AGEs inhibition was calculated as
% AGEs inhibition = [1 − (S − Sb)/(C − Cb)] × 100 (2)
where S and C were fluorescence of test samples (in DMSO) and control (test mixtures containing
only DMSO) incubated at 37 °C, and where Sb and Cb were fluorescence for samples incubated at 4 °C. […]

Test [2] deals with formation of Advanced Glycation Endproducts (AGEs), BSA-glucose. Put plainly: BSA-glucose antiglycation assay. The class given is biochemical, bovine. The settings on record: for BSA-Glucose % Inhibition: at 0.25 mM (table footnote a). As to the method: The BSA (bovine serum albumin) -glucose and BSA-MGO (methyl glyoxal) antiglycation assays were carried out as reported before. The test protocol is attached as Supplementary Materials. […]
1. Antiglycation Assay (BSA-Glucose Assay)
The antiglycation assay was performed according to the method developed by Matsuura et al.
(2002) with minor modifications. The reaction mixture (300 μL) contained bovine serum albumin
(BSA) (10 mg/mL, 135 μL), D-glucose (500 mM, 135 μL) dissolved in phosphate buffer (50 mM, pH
7.4, containing sodium azide (0.02%, added to prevent bacterial growth) and test compounds (30 μL),
at different final concentrations (1.5–0.023 mM for isolated constituents or 100–1.17 μg/mL for
extracts) dissolved in 100 % DMSO. The mixtures were incubated at 60 °C for 48 h. After incubation,
the reaction mixture was allowed to cool down at room temperature. Then 100 μL reaction mixture
was transferred to a new plastic tube (1.5 mL) and the reaction was stopped by adding 10 μL of 100%
(w/v) trichloroacetic acid (TCA) and to precipitate proteins. The TCA-added mixture was kept at 4 °C
for 10 min, followed by centrifugation (14,000 rpm, 4 °C, 4 min). The supernatant containing unreacted
D-glucose, test sample and interfering substances was discarded, whereas the precipitate containing
AGEs-BSA was redissolved with 0.8 mL alkaline PBS (137 mM NaCl, 8.1 mM Na2HPO4, 2.68 mM KCl,
1.47 mM KH2PO4, pH 10). The change in fluorescence intensity (excitation 335 nm, emission 385 nm;
excitation 370, emission 440) due to formation of AGEs was monitored by spectrofluorometry
(Tecan™ Infinite M200, Giessen, The Netherlands). In order to eliminate interference by autofluorescenc e
of the test compounds, a parallel incubation of test substance with BSA at 60 °C without D-glucose
was performed for all samples. Quercetin (0.5–0.0312 mM final concentration) and aminoguanidine
(3–0.046 mM final concentration) were used as reference compounds.
2. The AGEs Inhibition was Calculated as
% inhibition = {1 − (FBSA + glucose + test substance − FBSA + test substance)/(FBSA
+ glucose − FBSA)} × 100 (1)
where F is the fluorescence intensity.
calculated using Sigma plot® 13.0. […]

In a further test the test system is Trypanosoma brucei. Kind of test: Antitrypanosomal activity, T. brucei. The settings on record: read-out: IC50 T. bruc. Format: cell-based. As to the method: (§1) Fractions and isolated compounds were evaluated for antimicrobial activity in an integrated screening panel as reported before.
The subject of the next test is Plasmodium falciparum K1. Put plainly: Antiplasmodial activity. The settings on record: K1, read-out: IC50 Pf-K1. The class given is cell-based. The method, then: as §1
The test system of another test is Trypanosoma cruzi. Put plainly: Antitrypanosomal activity, T. cruzi. The class given is cell-based. The following applies: read-out: IC50 T. cruz. The method, then:
as §1

The subject of test [3] is Peritoneal Murine Macrophages (PMM). Put plainly: Cytotoxicity on peritoneal murine macrophages. The class given is cell-based. The following applies: Mus musculus, Macrophage. The method, then:
as §1

In a further test the test system is Leishmania infantum. Put plainly: Antileishmanial activity, L. infantum. Format: cell-based. As to the method:
as §1

Test [4] relates to MRC-5: Human fetal lung fibroblasts. Put plainly: Cytotoxicity on MRC-5 cells. The settings on record: MRC5. The class given is cell-based. As to the method: as §1
For test [5], the system named is formation of Advanced Glycation Endproducts (AGEs), BSA-MGO (methyl glyoxal). Put plainly: BSA-MGO antiglycation assay. The settings on record: at 2 mM. Format: biochemical, bovine.
The next test has as its system Escherichia coli. Put plainly: Antibacterial screening, E. coli. Format: cell-based. The method, then: as §1
For test [6], the system named is Leishmania promastigote stage. Also on record: method as in doi:10.1016/j.phytol.2014.04.009. The settings on record: cited from earlier work.
Another test deals with Staphylococcus aureus. Kind of test: Antibacterial screening, S. aureus. The class given is cell-based. The method, then: as §1
In the next test the test system is Microsporum canis. Put plainly: Antifungal screening, M. canis. Format: cell-based. The method, then: as §1
The next test has as its system Aspergillus fumigatus. Kind of test: Antifungal screening, A. fumigatus. The class given is cell-based. As to the method: as §1

SMILES strings stand for the structures. pIC50: −log10 of the molar value. Converted amounts (≈) assume the structure as drawn.

Broadly, the pIC50 is −log10 of the IC50, conventionally taken in molar units. Turning to `N=C(N)NN` [Aminoguanidine, reference compound], the negative-log IC50 (pIC50) in [1] is 3.82; in [2] it was 2.76.

In the case of `CC1=CC[C@@H]2C(C)(C)[C@H](O)CC[C@@]2(C)[C@@H]1COc1ccc2ccc(=O)oc2c1` [Compound 1, Feselol], the pIC50 was 5.09 in the test with Trypanosoma brucei; 2.77 in [1]; 4.65 with Plasmodium falciparum K1; 5.07 in the test on Trypanosoma cruzi; 5.10 in [3]; 5.17 with Leishmania infantum. In [4], the pIC50 was 5.10. Further, in test [2], the “BSA-Glucose IC50” value is “did not reach the 50% inhibition level”. The “BSA-Glucose % Inhibition” value in test [2] was 47%.

Consider `CC1=CC(=O)[C@@H]2C(C)(C)[C@H](O)CC[C@@]2(C)[C@@H]1COc1ccc2ccc(=O)oc2c1` [Compound 2, Ligupersin A], for which the “BSA-MGO IC50” value in [1] is “the 50% inhibition level was not reached”. The “BSA-MGO % Inhibition” value in [5] is recorded as 40%. Besides, the pIC50 in [2] was 3.39.

Consider `CC(=O)OC(CC=C(C)C)/C(C)=C/C(O)C/C(C)=C/COc1ccc2ccc(=O)oc2c1` (centres unmarked) [Compound 3, 8′-O-Acetyl-asacoumarin A], for which the pIC50 is 4.49 with Trypanosoma brucei; 2.99 in test [1]; 5.13 in the test with Plasmodium falciparum K1; 4.72 with Trypanosoma cruzi; 4.49 in [3]; 4.90 in the test on Leishmania infantum. This compound had a negative-log IC50 (pIC50) in test [4] of 4.50. Besides, the “BSA-Glucose IC50” value in [2] is given as “did not reach the 50% inhibition level”. The “BSA-Glucose % Inhibition” value in [2] is listed as 44%.

Consider `CC(C)=CCC(O)/C(C)=C/C(O)C/C(C)=C/COc1ccc2ccc(=O)oc2c1` (centres unmarked) [Compound 4, Asacoumarin A], for which the pIC50 with Trypanosoma brucei is 4.49; in the test on Plasmodium falciparum K1, 5.89; with Trypanosoma cruzi, 4.98; in test [3], 4.49; with Leishmania infantum, 4.90; in test [2] it was 2.74. The compound also had a pIC50 in test [4] of 4.93. Moreover, the “BSA-MGO IC50” value in test [1] is “the 50% inhibition level was not reached”. Further, the “BSA-MGO % Inhibition” value in test [5] came to 35%.

On to `C/C(=C\COc1ccc2ccc(=O)oc2c1)CC/C=C(\C)CC[C@@H](O)C(C)(C)O` [Compound 5, 10′R-Karatavacinol], for which the negative logarithm of the IC50 (pIC50) in the test with Trypanosoma brucei was 4.49; in test [1] it was 2.74; with Plasmodium falciparum K1 it was 4.80; in the test with Trypanosoma cruzi, 5.03; in test [3] it was 4.49; in the test with Leishmania infantum, 4.49. The negative-log IC50 (pIC50) in test [4] was 4.69. For the same compound, in [2], the “BSA-Glucose IC50” value was “did not reach the 50% inhibition level”. Also, the “BSA-Glucose % Inhibition” value in [2] is given as 32%.

Take `CC(=O)O[C@H](CC/C(C)=C/CC/C(C)=C/COc1ccc2ccc(=O)oc2c1)C(C)(C)O` [Compound 6, 10′R-Acetyl-karatavacinol]: in test [1], the “BSA-MGO IC50” value is “the 50% inhibition level was not reached”. In addition, the “BSA-MGO % Inhibition” value in [5] is reported as 20%. In test [2], the “BSA-Glucose IC50” value was “did not reach the 50% inhibition level” and the “BSA-Glucose % Inhibition” value came out at 36%.

With `O=c1c(O)c(-c2ccc(O)c(O)c2)oc2cc(O)cc(O)c12` [Quercetin, reference compound], the negative logarithm of the IC50 (pIC50) is 3.46 in test [1] and 3.64 in test [2].

For the compound `O=C(Cn1ccnc1[N+](=O)[O-])NCc1ccccc1` [benznidazole, reference compound], the pIC50 in the test on Trypanosoma cruzi was 5.48.

Take `O=C(N[C@H](CO)[C@H](O)c1ccc([N+](=O)[O-])cc1)C(Cl)Cl` [chloramphenicol]: in the test on Escherichia coli, the pIC50 was 5.31.

Take `CCN(CC)CCCC(C)Nc1ccnc2cc(Cl)ccc12` (centres unmarked) [chloroquine, reference compound]: the pIC50 in the test with Plasmodium falciparum K1 is 6.80.

Turning to `CC1=CC[C@@H]2C(C)(C)[C@@H](O)CC[C@@]2(C)[C@@H]1COc1ccc2ccc(=O)oc2c1` [conferol], the “IC value, antileishmanial activity” value in [6] is 11.51 µg/mL.

In general, IC50 refers to the point on the concentration scale where inhibition reaches its midpoint. Lower therefore signals greater potency. As for `CC[C@H]1OC(=O)[C@H](C)[C@@H](O[C@H]2C[C@@](C)(OC)[C@@H](O)[C@H](C)O2)[C@H](C)[C@@H](O[C@@H]2O[C@H](C)C[C@H](N(C)C)[C@H]2O)[C@](C)(O)C[C@@H](C)C(=O)[C@H](C)[C@@H](O)[C@]1(C)O` [erythromycin], the concentration for half-maximal inhibition (IC50) in the test on Staphylococcus aureus was found to be 11.2 µg/mL (≈ 15.3 µM).

Consider `Cc1ccc(C(=O)Nc2ccc(S(=O)(=O)O)c3cc(S(=O)(=O)O)cc(S(=O)(=O)O)c23)cc1NC(=O)c1cccc(NC(=O)Nc2cccc(C(=O)Nc3cc(C(=O)Nc4ccc(S(=O)(=O)O)c5cc(S(=O)(=O)O)cc(S(=O)(=O)O)c45)ccc3C)c2)c1` [suramine, reference compound], for which the pIC50 with Trypanosoma brucei is 7.52.

`CN(C/C=C/C#CC(C)(C)C)Cc1cccc2ccccc12` [terbinafine] registered an IC50 in the test with Microsporum canis of 0.11 µg/mL (≈ 0.377 µM). The same compound gave a pIC50 with Aspergillus fumigatus of 6.10.

`COc1cc(Cc2cnc(N)nc2N)cc(OC)c1OC` [trimethoprim] yielded an IC50 in the test with Escherichia coli of 0.25 µg/mL.
